Results on eleven molecules are retold here after ChEMBL document CHEMBL1201862, “PubChem BioAssay data set” (2004).

What all share (test): NCI-60 cell line screen, 48 h
Experiment [1] relates to UO-31.
For experiment [2], the system named is SN12C.
For experiment [3], the system named is CCRF-CEM.
The subject of experiment [4] is MDA-MB-231.
Experiment [5] relates to DU-145.
Experiment [6] relates to SK-MEL-5.
For experiment [7], the system named is MCF7.
In experiment [8] the test system is UACC-62.
For experiment [9], the system named is SK-OV-3.
Experiment [10] relates to BT-549.
For experiment [11], the system named is SF-295.
The test system of experiment [12] is SW-620.
In experiment [13] the test system is KM12.
Experiment [14] deals with CAKI-1.
Experiment [15] has as its system M14.
Experiment [16] has as its system Hs-578T.
For experiment [17], the system named is SK-MEL-2.
Experiment [18] concerns RXF 393.

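The compound was tested at five concentrations on cells cultured in 96-well plates, with a 48-hour exposure period. GI50 = concentration required for 50% inhibition of growth.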 The source made the active and inactive calls. Cut-off read from the data, not from the text of the source: active = GI50 up to about 1.1 µM and inactive = higher.

On to `CC1=C(O)C(=O)c2ccccc2C1=O`, for which the GI50 is 21.5 µM (inactive) in experiment [1]; > 100 µM (inactive) in experiment [2]; > 100 µM (inactive) in experiment [3]; > 100 µM (inactive) in experiment [4]; 64.9 µM (inactive) in experiment [5]; 4.45 µM (inactive) in experiment [6]. Also, the GI50 in experiment [7] was 67.6 µM (inactive); in [8] it was 39.3 µM (inactive); in experiment [9], > 100 µM (inactive); in experiment [10], 18.6 µM (inactive); in experiment [11], 49.4 µM (inactive); in experiment [12] it was 84.3 µM (inactive). The GI50 is 23 µM (inactive) in experiment [13]; > 100 µM (inactive) in [14]; 16.9 µM (inactive) in experiment [15]; 78.2 µM (inactive) in experiment [16]; > 100 µM (inactive) in experiment [17]; 34.8 µM (inactive) in [18].

Turning to `COc1cc(C[S+]([O-])c2ccc(O)cc2)cc(OC)c1OC` (configuration not stated), the GI50 is 66.2 µM (inactive) in [1]; > 100 µM (inactive) in experiment [2]; > 100 µM (inactive) in experiment [3]; > 100 µM (inactive) in experiment [4]; > 100 µM (inactive) in [5]; > 100 µM (inactive) in experiment [6]. The GI50 in experiment [7], in [8], in experiment [9], in experiment [10], in experiment [11] and in [12] was > 100 µM (inactive) each time. The GI50 in experiment [13], in experiment [14], in [15], in experiment [16], in experiment [17] and in experiment [18] was > 100 µM (inactive) in each case.

For `CCOC(=O)c1cn(CC)c2ccc3ccsc3c2c1=O`, the GI50 in experiment [1], in [3], in experiment [4], in [5], in experiment [6] and in experiment [7] was > 100 µM (inactive) throughout. Moreover, the GI50 in experiment [8], in experiment [9], in experiment [10], in experiment [11], in experiment [12] and in experiment [13] was > 100 µM (inactive) each time. The GI50 is > 100 µM (inactive) in experiment [14]; > 100 µM (inactive) in [15]; > 100 µM (inactive) in experiment [16]; 75.2 µM (inactive) in experiment [17]; > 100 µM (inactive) in experiment [18].

Take `Cn1c(=O)cc(/N=N\c2ccc(Cl)c(Cl)c2)[nH]c1=O`: the GI50 is > 100 µM (inactive) in experiment [1]; 41.1 µM (inactive) in experiment [2]; 24.2 µM (inactive) in experiment [3]; 24.8 µM (inactive) in experiment [4]; 85.5 µM (inactive) in experiment [5]; 35.2 µM (inactive) in experiment [6]. The GI50 in experiment [7] was 26.7 µM (inactive); in [8], 62.2 µM (inactive); in experiment [9], > 100 µM (inactive); in experiment [10], 29 µM (inactive); in experiment [11], > 100 µM (inactive); in [12] it was 24.3 µM (inactive). Also, the GI50 in experiment [13] was > 100 µM (inactive); in experiment [14] it was 13.4 µM (inactive); in experiment [15] it was 20.3 µM (inactive); in experiment [16] it was 33.4 µM (inactive); in experiment [17], 14.6 µM (inactive); in [18], 23.3 µM (inactive).

For the molecule `O=C(c1ccccc1)c1ccc2[nH]c(-c3c(Cl)c(Cl)c(Cl)c(Cl)c3C(=O)N/N=C\C=C\c3ccccc3)nc2c1`, the GI50 was 39.5 µM (inactive) in [1]; 31.3 µM (inactive) in experiment [2]; 12 µM (inactive) in experiment [3]; 22.6 µM (inactive) in [4]; 73.1 µM (inactive) in [5]; 26.9 µM (inactive) in experiment [6]. In addition, the GI50 in [7] is 20.7 µM (inactive); in [9], > 100 µM (inactive); in experiment [10] it was 47.1 µM (inactive); in [11], 38.9 µM (inactive); in experiment [12], 54.1 µM (inactive); in [13], 61.4 µM (inactive). Also, the GI50 was 77.4 µM (inactive) in experiment [14]; 53.5 µM (inactive) in experiment [15]; 52.7 µM (inactive) in [16]; 37.1 µM (inactive) in experiment [17]; 21.8 µM (inactive) in experiment [18].

Consider `COC(=O)C1(C)CCCC2(C)c3cc(OC)ccc3C(=O)C(Br)C12` (configuration not stated), for which the GI50 was 1.84 µM (inactive) in experiment [1]; 8.61 µM (inactive) in experiment [2]; 2.29 µM (inactive) in experiment [3]; 3.35 µM (inactive) in [4]; > 10 µM (inactive) in experiment [5]; > 10 µM (inactive) in experiment [6]. The GI50 is 1.95 µM (inactive) in [7]; > 10 µM (inactive) in experiment [8]; > 10 µM (inactive) in [9]; > 10 µM (inactive) in experiment [10]; > 10 µM (inactive) in experiment [11]; 2.15 µM (inactive) in experiment [12]. Besides, the GI50 in experiment [13] is > 10 µM (inactive); in experiment [14], 4.05 µM (inactive); in experiment [15], 3.35 µM (inactive); in experiment [16], > 10 µM (inactive); in experiment [17], > 10 µM (inactive); in [18] it was 9.23 µM (inactive).

For `N=C(N)NS(=O)(=O)c1ccc(NCc2cccc3c(=O)c4ccc(Cl)cc4oc23)cc1`, the GI50 is 5.41 µM (inactive) in experiment [1]; > 9.27 µM (inactive) in [2]; 1.82 µM (inactive) in experiment [3]; > 10.8 µM (inactive) in [4]; 5.57 µM (inactive) in experiment [5]; 9.4 µM (inactive) in experiment [6]. The GI50 in experiment [7] is 7.45 µM (inactive); in experiment [8] it was 6.19 µM (inactive); in experiment [9] it was > 10.3 µM (inactive); in experiment [10], 7.18 µM (inactive); in [11], > 9.35 µM (inactive); in [12], 5.41 µM (inactive). For the same molecule, the GI50 is 3.25 µM (inactive) in experiment [13]; 8.53 µM (inactive) in experiment [14]; 6.7 µM (inactive) in experiment [15]; 4.37 µM (inactive) in [16]; > 10.4 µM (inactive) in [17]; 3.08 µM (inactive) in [18].

For `O=C1NC(c2ccccc2)N=C2Oc3ccccc3C=C12` (configuration not stated), the GI50 in [1] was 8.22 µM (inactive); in [2] it was 3.27 µM (inactive); in [3], 0.562 µM (active); in [4] it was 0.569 µM (active); in experiment [5], 0.231 µM (active); in experiment [6] it was 0.185 µM (active). Further, the GI50 in experiment [7] was 0.359 µM (active); in experiment [8], 0.127 µM (active); in [9] it was 0.0424 µM (active); in experiment [10], 32.6 µM (inactive); in experiment [11], 0.444 µM (active); in [12], 0.621 µM (active). Also, the GI50 is 2.62 µM (inactive) in experiment [13]; 0.0255 µM (active) in [14]; 0.194 µM (active) in [15]; 0.521 µM (active) in experiment [16]; 1.26 µM (inactive) in [17]; 0.603 µM (active) in experiment [18].

With `COc1cc2nc(-c3ccc4ccccc4c3)nc(O)c2cc1OC`, the GI50 in [1], in experiment [2], in experiment [3], in experiment [4], in [5] and in experiment [6] was > 100 µM (inactive) in each case. Further, the GI50 is > 100 µM (inactive) in [7]; 99.3 µM (inactive) in experiment [8]; > 100 µM (inactive) in experiment [9]; > 100 µM (inactive) in experiment [10]; 48.9 µM (inactive) in experiment [11]; > 100 µM (inactive) in experiment [13]. Also, the GI50 is > 100 µM (inactive) in experiment [14]; > 100 µM (inactive) in experiment [15]; 53.2 µM (inactive) in experiment [16]; 42.8 µM (inactive) in experiment [17]; 41.7 µM (inactive) in experiment [18].

For `CC(=O)N1C(=O)/C(=C\C(=O)c2ccc([N+](=O)[O-])cc2)c2ccccc21`, the GI50 is 19 µM (inactive) in experiment [1]; 16.8 µM (inactive) in [2]; 3.94 µM (inactive) in [3]; 35.3 µM (inactive) in experiment [4]; 67 µM (inactive) in experiment [5]; 35 µM (inactive) in experiment [6]. Also, the GI50 in experiment [7] was 21.3 µM (inactive); in experiment [8], 18.4 µM (inactive); in [9] it was > 100 µM (inactive); in experiment [10] it was 20.9 µM (inactive); in [11], > 100 µM (inactive); in experiment [13], 19.6 µM (inactive). The GI50 in experiment [14] was 22.5 µM (inactive); in [15] it was 31 µM (inactive); in experiment [16], 22.2 µM (inactive); in experiment [17] it was > 100 µM (inactive); in experiment [18], 29.1 µM (inactive).

On to `O=C(O)CNC(=O)C(CSC(=O)OCC1c2ccccc2-c2ccccc21)NC(=O)CCC(NC(=O)OCC1c2ccccc2-c2ccccc21)C(=O)O` (configuration not stated), for which the GI50 in [1] is 18.7 µM (inactive); in [2], 16.5 µM (inactive); in [3], 20.2 µM (inactive); in experiment [4] it was 17.9 µM (inactive); in [5], 15.3 µM (inactive); in [6], 63.4 µM (inactive). In addition, the GI50 was > 100 µM (inactive) in experiment [7]; > 100 µM (inactive) in [9]; > 100 µM (inactive) in experiment [10]; 16.6 µM (inactive) in experiment [11]; 19 µM (inactive) in experiment [12]; 4.57 µM (inactive) in experiment [14]. Further, the GI50 in experiment [15] is > 100 µM (inactive); in experiment [16], 68.1 µM (inactive); in [17] it was > 100 µM (inactive); in experiment [18] it was 18.7 µM (inactive).
